The results in this text go back to US8999955B2, “Tetrahydrocyclopenta[c]acridine derivatives as kinase inhibitors and biological” (Centre National de la Recherche Scientifique, priority 2008, dated 2015).

The target of data set [1] is CDK5 (Homo sapiens (Human), UniProt Q00535). The experiment in a line: Enzyme inhibition test, radiolabeled ATP, CDK5. In kind it is biochemical. To be noted: dose-response curves. The procedure:
(§1) The tests are carried out as follows: the enzyme to be assayed was purified, for example by affinity chromatography on agarose beads. The catalytic activity was measured using radiolabeled ATP, at a standard final concentration. The test compounds were added at various concentrations making it possible to establish dose-response curves (activity of the enzyme as a function of the concentration). The IC50 values were calculated from these curves and are given in μM.

Data set [2] has as its target CDK1. In words: Enzyme inhibition test, radiolabeled ATP, CDK1. In kind it is biochemical. The conditions noted are these: dose-response curves. The method, then:
as §1

Data set [3] has as its system SHSY cells. The experiment in a line: MTS test, viability of SHSY cells. The conditions noted are these: MTS reduction. In kind it is cell-based. The procedure: The viability of SHSY cells is determined by measuring the MTS reduction as described in (6).
(Tetrazolium assays rely on reduction of a dye to a coloured formazan, in cell work by metabolically active cells.)

Values joined by “and” are separate entries in the source; they are usually repeats but may differ in a detail not shown here. Identical values can stand only once.

Sequence of CDK5 (Q00535 whole entry, species assumed): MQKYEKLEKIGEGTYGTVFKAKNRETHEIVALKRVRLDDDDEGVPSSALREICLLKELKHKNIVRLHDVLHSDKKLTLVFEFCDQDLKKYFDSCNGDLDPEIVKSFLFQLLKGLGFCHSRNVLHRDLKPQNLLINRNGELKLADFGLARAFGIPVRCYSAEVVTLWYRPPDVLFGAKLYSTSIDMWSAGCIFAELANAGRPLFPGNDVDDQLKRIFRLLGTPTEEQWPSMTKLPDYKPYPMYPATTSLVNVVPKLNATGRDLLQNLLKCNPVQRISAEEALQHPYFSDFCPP
Sequence of CDK5 (Q15078 99-307 partner, species assumed): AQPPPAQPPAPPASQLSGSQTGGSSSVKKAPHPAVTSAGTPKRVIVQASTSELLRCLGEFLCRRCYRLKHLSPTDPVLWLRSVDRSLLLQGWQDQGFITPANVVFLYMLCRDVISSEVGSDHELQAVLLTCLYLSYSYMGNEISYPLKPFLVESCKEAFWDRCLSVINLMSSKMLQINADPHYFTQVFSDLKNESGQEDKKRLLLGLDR

The term melting point denotes the temperature of the solid-liquid transition. As a reminder, the IC50 is the midpoint of a concentration-inhibition curve. Low readings indicate higher potency, high ones lower potency. `COc1cc2cc3c(nc2cc1OC)C1=C([Si](C)(C)C)C(=O)CC1CC3O` (stereo not drawn) [5-Hydroxy-8,9-dimethoxy-1-trimethylsilanyl-3,3a,4,5-tetrahydro-2H-cyclopenta[c]acridin-2-one] registered a melting point of 221 to 222 °C. In data set [1], this compound displayed an IC50 of 3.3 µM. The compound also had an IC50 in data set [2] of 1700 nM. On to `COc1ccc2cc3c(nc2c1)C1=C([Si](C)(C)C)C(=O)CC1CC3O` (stereo not drawn) [5-Hydroxy-9-methoxy-1-trimethylsilanyl-3,3a,4,5-tetrahydro-2H-cyclopenta[c]acridin-2-one], for which the melting point came out at 187 °C. Moreover, the “% survival of SHSY cells at 10 μM” value in data set [3] stood at 44%. The same compound registered an IC50 in data set [1] of 4.8 µM. For the same compound, the IC50 in data set [2] came to 1600 nM. `COc1ccc2nc3c(cc2c1)C(O)CC1CC(=O)C([Si](C)(C)C)=C31` (stereo not drawn) [5-Hydroxy-8-methoxy-1-trimethylsilanyl-3,3a,4,5-tetrahydro-2H-cyclopenta[c]acridin-2-one] had a melting point of 186 °C. The compound further displayed an IC50 in data set [1] of 4 µM. This compound came in with an IC50 in data set [2] of 1700 nM. Turning to `C[Si](C)(C)C1=C2c3nc4ccccc4cc3C(Cl)CC2CC1=O` (stereo not drawn) [5-Chloro-1-trimethylsilanyl-3,3a,4,5-tetrahydro-2H-cyclopenta[c]acridin-2-one], the IC50 in data set [1] was found to be 63 µM; in data set [2], 3600 nM. Turning to `C=CC(O)c1cc2ccccc2nc1C#C[Si](C)(C)C` (stereo not drawn) [1-(2-(Trimethylsilanylethynyl)quinolin-3-yl)propan-2-en-1-ol], in data set [3], the “% survival of SHSY cells at 10 μM” value is 0.4%. Same read-out and setting: then `CC(=O)c1cc2ccccc2nc1C#Cc1ccccn1` [1-(2-(Pyridin-2-ylethynyl)quinolin-3-yl)ethanone], with 4%. For the compound `CCCCC1=C2c3nc4ccccc4cc3C(=O)CC2CC1=O` (stereo not drawn) [5-Keto-1-butyl-3,3a,4,5-tetrahydro-2H-cyclopenta[c]acridin-2-one], in data set [3], the “% survival of SHSY cells at 10 μM” value stood at 38%. As to `C[Si](C)(C)C1=C2c3nc4ccccc4cc3C(O)CC2CC1=O` (single isomer, unassigned) [5-hydroxy-1-trimethylsilanyl-3,3a,4,5-tetrahydro-2H-cyclopen] [5-hydroxy-1-trimethylsilanyl-3,3a,4,5-tetrahydro-2H-cyclopenta[c]acridin-2-one], the IC50 in data set [1] was 26 µM and 3 µM. Consider `C=CCC(O)c1cc2ccccc2nc1C#CCOC1CCCCO1` (stereo not drawn) [1-(2-[3-(Tetrahydropyran-2-yloxy)prop-1-ynyl]quinolin-3-yl)but-3-en-1-ol], for which the “% survival of SHSY cells at 10 μM” value in data set [3] was determined as 2%. For `C[Si](C)(C)C#Cc1nc2ccccc2cc1C(=O)CC[N+](=O)[O-]` [1-(2-Trimethylsilanylethynyl)quinolin-3-yl)propan-3-nitro-1-one], the “% survival of SHSY cells at 10 μM” value in data set [3] came to 47%. With `C[Si](C)(C)C1=C2c3nc4ccccc4cc3C(O)CC2CC1=O` (racemic) [5-Hydroxy-1-trimethylsilanyl-3,3a,4,5-tetrahydro-2H-cyclopenta[c]acridin-2-one], the melting point was 167 to 168 °C. Besides, the “% survival of SHSY cells at 10 μM” value in data set [3] was found to be 85%. The same compound gave an IC50 in data set [1] of 1.6 to 2.3 µM.
